These are literature values, as cited in patent US6727104B2, “Microcolumn chromatographic immunoassays” (The Board of Regents of the University of Nebraska, priority 2001, dated 2004).

For data set [1], the target named is Thyroxine-Binding Prealbumin (Homo sapiens, UniProt P02766).
Data set [2] deals with T1, Thyroxine-Binding Globulin (Homo sapiens, UniProt P05543).
T1 sequence (P05543 21-415): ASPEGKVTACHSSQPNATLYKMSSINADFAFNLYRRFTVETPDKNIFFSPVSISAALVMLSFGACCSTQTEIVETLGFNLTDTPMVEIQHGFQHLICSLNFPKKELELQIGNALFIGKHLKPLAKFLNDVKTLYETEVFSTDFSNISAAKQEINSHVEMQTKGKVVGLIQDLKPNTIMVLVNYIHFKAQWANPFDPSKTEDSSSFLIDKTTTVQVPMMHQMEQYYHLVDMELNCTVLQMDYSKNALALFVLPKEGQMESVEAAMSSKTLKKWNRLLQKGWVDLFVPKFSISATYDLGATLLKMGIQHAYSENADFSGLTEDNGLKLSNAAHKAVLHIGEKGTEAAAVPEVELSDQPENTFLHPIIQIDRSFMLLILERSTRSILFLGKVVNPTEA
Conditions: T4 Binding Site.

Where two headings read alike, the source gives them in different places.

Consider `N[C@@H](Cc1cc(I)c(Oc2cc(I)c(O)c(I)c2)c(I)c1)C(=O)O` [T4, L-Thyroxine], for which the Ka in data set [1] (High Affinity Site) was 1e+07 M⁻¹; in data set [1] (Low Affinity Site), 300000 M⁻¹; in data set [2] it was 1e+10 M⁻¹.
